# Reference: US12661370B2, “Amino acid salts of nicotinic acid ribosides as anti-aging agents” (Jumpstart Fertility Pty Ltd, priority 2018, dated 2026)
# Tested on: COV434 cells
# Assay: NAD cell assay (NAD cycling method)
# Assay type: cell-based
# Conditions: cellular NAD level, 200 uM for 4 hr, normalised to protein, mole per mole comparison with NaR parent
# Procedure: NAD levels were assayed based on the NAD cycling method of Zhu and Rand, PLoS One (2012), herein incorporated by reference. COV434 cells were maintained in 6 well plates and treated with the indicated compounds at a concentration of 200 uM for 4 hr. Media was removed, plates were washed in cold PBS and cells were scraped down in NAD extraction buffer containing 10 mM nicotinamide, 50 mM Tris HCl, 0.1% Triton X-100. Cells were homogenised by sonication for 5 seconds, and samples were centrifuged at 7,000 g for 5 min at 4 degrees. Aliquots were taken for later protein assay, and samples were then passed through 10 kDa amicon filters at 14,000 g, 30 min at 4 degrees to remove proteins from the sample. Each sample was measured in technical triplicate, with 25 μL sample added to 100 μL ADH cycling mix (0.2 mg/ml alcohol dehydrogenase enzyme, 2% ethanol, 100 mM Tris pH 8.5). Samples were allowed to cycle for 10 min at room temperature, followed by 50 μL addition of an MTT/PMS solution (0.1 mM phenazine methosulfate, 0.8 mM 3(4,5-Dimethylthiazol-2-yl)-2,5-diphenyltetrazolium bromide), 100 mM Tris-HCl pH 8.5). Plates were then incubated for 15 min and absorbance was measured at 570 nm. NAD concentrations were extrapolated from a standard curve, and normalised to protein concentrations determined by BCA protein assay.
# The adjusted fold increase is obtained through a direct comparison on a mole per mole basis between the compared salt and its parent counterpart. In other words, the instant compounds derived from NaR parent molecule will only have their NAD activity level measured against NaR based on the same amount (mole) of salt tested in the cell. For example, the fold increase of compound I-002 is based on the NAD activity observed in a direct comparison for the same amount of mole in the cell and that of the NaR parent. Similarly, the fold increase of i-003 is based on the direct comparison with NaR.
row,Molecule,Fold increase adjusted for MW (compared to parent molecule)
1,"(S)-2-Ammonio-3-(1H-indol-3-yl)propanoate compound with 1-((2R,3R,4S,5R)-3,4-dihydroxy-5-(hydroxymethyl)tetrahydrofuran-2-yl)pyridine-1-ium-3-carboxylate (1:1) [Compound I-003]",1.76 fold
2,"O=C([O-])c1ccc[n+]([C@@H]2O[C@H](CO)[C@@H](O)[C@H]2O)c1 [NaR, reference compound]",1.0 fold
3,"(2S,3S)-2-Ammonio-3-methylpentanoate compound with 1-((2R,3R,4S,5R)-3,4-dihydroxy-5-(hydroxymethyl)tetrahydrofuran-2-yl)pyridine-1-ium-3-carboxylate (1:1) [Compound I-002]",1.34 fold
